The values that follow are results of earlier work, collected in US5945417A, “Heterocyclic compounds, their preparation and use” (priority 1995, dated 1999).

Data set [1] deals with trans ACPD stimulated phosphoinositide hydrolysis. Conditions: literature.
The next data set relates to mGluR1α. Conditions: 1 mM quisqualate or glutamate; BHK cells expressing mGluR1α.
Data set [2] has as its system metabotropic glutamate receptors. Particulars: literature.
A further data set deals with control BHK cells. Conditions: 1 mM quisqualate or glutamate.
The subject of a further data set is MCAO model in mice. Particulars: literature.
Data set [3] deals with release of dopamine in the rat brain. Conditions: literature.
The next data set has as its system nerve cell cultures. Particulars: literature.

In the case of `C[C@@](N)(C(=O)O)c1ccc(C(=O)O)cc1` [S-MCPG, S-alpha methyl4-carboxyphenyl glycine], the “antagonism of trans ACPD stimulated phosphoinositide hydrolysis” value (shortened to “antagonism”) in data set [1] was “antagonise trans ACPD stimulated phosphoinositide hydrolysis”.

On to `N[C@@H](CCC(=O)O)C(=O)O` [L-glutamate], for which the “fold increase over basal Pl-hydrolysis” value in the data set with mGluR1α is given as 6-8 fold.

`NC(C(=O)O)c1cc(O)no1` (stereo not shown) [ibotenate]: the “action on the metabotropic glutamate receptors” value (from here on “action”) in data set [2] was “non-selective agonists”.

With `CN[C@H](CC(=O)O)C(=O)O` [NMDA], the “action” value in data set [2] was “little effect”.

With `N[C@@H](CP(=O)(O)O)C(=O)O` [L-AP3, L-2-amino-3-phosphonopropionic acid], in data set [2], the “action” value is recorded as “partial agonist”.

For the molecule `N[C@@H](Cn1oc(=O)[nH]c1=O)C(=O)O` [quisqualate], the “stimulation in control BHK cells” value with control BHK cells is recorded as “no stimulation”. The “action” value in data set [2] is recorded as “non-selective agonists”. In the data set on mGluR1α, the “fold increase over basal Pl-hydrolysis” value is 6-8 fold.

As to `N[C@@]1(C(=O)O)CC[C@@H](C(=O)O)C1` [Trans-ACPD, trans 1S,3R-1-aminocyclopentane-1,3-dicarboxylicacid], the “action” value in data set [2] is on record as “selectively activated”. The “neuroprotection in an MCAO model in mice” value in the data set with MCAO model in mice is reported as “neuroprotective agent”. Besides, the “release of dopamine in the rat brain” value in data set [3] is on record as “increase release of dopamine in the rat brain”. The “inhibition of NMDA induced neurotoxicity” value with nerve cell cultures is on record as “inhibit NMDA induced neurotoxicity”.

With `N[C@H](C(=O)O)c1ccc(C(=O)O)cc1` [Compound S-4CPG, S-4-carboxyphenyl glycine], the “antagonism” value in data set [1] is reported as “antagonise trans ACPD stimulated phosphoinositide hydrolysis”.

Consider `Cc1onc(O)c1CC(N)C(=O)O` (stereo not shown) [AMPA], for which the “action” value in data set [2] was “little effect”.

On to `C=C(C)[C@H]1CN[C@H](C(=O)O)[C@H]1CC(=O)O` [kainate], for which, in data set [2], the “action” value is reported as “little effect”.

Take `N[C@H](C(=O)O)c1ccc(C(=O)O)c(O)c1` [Compound S-4C3HPG, S-4-carboxy-3-hydroxyphenyl glycine]: the “antagonism” value in data set [1] is listed as “antagonise trans ACPD stimulated phosphoinositide hydrolysis”.
